According to patent US7442554B2, “Compositions and methods involving glucocorticoid receptor site II” (Bristol-Myers Squibb Company, priority 2002, dated 2008):
“Also recorded” adds a separate entry of the source. Like-named read-outs stand apart in the source and are kept apart here.

What was measured:
[1] = target: T1, human full-length glucocorticoid receptor (Homo sapiens, UniProt P04150); assay: GR Site I binding assay (FITC-dexamethasone fluorescence polarization, Panvera kit)
T1 construct: recombinantly expressed human full-length glucocorticoid receptor; purchased Panvera Co., Madison, Wis
T1 sequence (P04150 1-777): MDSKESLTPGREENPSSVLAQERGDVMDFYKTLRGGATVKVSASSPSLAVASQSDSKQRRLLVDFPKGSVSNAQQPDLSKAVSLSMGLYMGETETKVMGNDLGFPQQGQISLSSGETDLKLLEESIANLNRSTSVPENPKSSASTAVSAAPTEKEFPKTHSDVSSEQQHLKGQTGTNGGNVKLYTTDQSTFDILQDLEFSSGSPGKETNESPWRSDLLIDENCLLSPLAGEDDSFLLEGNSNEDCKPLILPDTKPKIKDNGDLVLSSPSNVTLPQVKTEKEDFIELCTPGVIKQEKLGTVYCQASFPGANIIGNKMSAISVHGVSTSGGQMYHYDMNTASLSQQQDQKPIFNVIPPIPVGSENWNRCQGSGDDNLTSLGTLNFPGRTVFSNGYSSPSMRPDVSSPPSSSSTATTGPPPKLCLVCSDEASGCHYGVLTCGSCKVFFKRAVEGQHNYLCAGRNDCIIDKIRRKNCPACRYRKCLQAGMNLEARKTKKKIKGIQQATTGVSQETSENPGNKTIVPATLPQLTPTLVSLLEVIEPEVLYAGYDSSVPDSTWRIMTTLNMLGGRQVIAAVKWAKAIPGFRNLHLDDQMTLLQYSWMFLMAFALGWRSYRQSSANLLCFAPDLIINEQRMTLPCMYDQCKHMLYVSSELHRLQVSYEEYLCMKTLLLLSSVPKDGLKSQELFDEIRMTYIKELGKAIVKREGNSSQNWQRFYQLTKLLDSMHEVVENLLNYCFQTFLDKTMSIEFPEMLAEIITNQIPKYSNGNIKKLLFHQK
Protocol: In order to measure the binding of compounds to Site I on the glucocorticoid receptor a commercially available kit was used (Glucocorticoid receptor competitor assay kit, Panvera Co., Madison, Wis.). Briefly, a cell lysate containing recombinantly expressed human full-length glucocorticoid receptor was mixed with a fluorescently labeled glucocorticoid (4 nM FITC-dexamethasone) plus or minus test molecule. After one hour at room temperature, the fluorescence polarization (FP) of the samples were measured.

Site II on GR = target: T2, Site II on GR (Homo sapiens, UniProt P04150); assay: Indirect Site II assay: modified FITC-dexamethasone FP assay with Compound D; assay type: binding
T2 construct: recombinantly expressed human full-length glucocorticoid receptor; purchased Panvera Co., Madison, Wis
T2 sequence (P04150 1-777): T1 sequence (P04150 1-777)
Protocol: In order to measure the binding of putative Site II compounds to GR we utilized the Glucocorticoid receptor competitor assay kit (Panvera Co., Madison, Wis.) in a modified version of the FITC-dexamethasone fluorescence polarization assay described in Example 2. In this assay, Compound D was added at a concentration of 200 nM, which yields approximately 50% inhibition of FITC-dexamethasone binding. Compound D (an R enantiomer) is Compound 50 of Example 1. Compound D is a ligand of Site II that inhibits via Site II FITC-dexamethasone binding to GR. […] These competitor Site II ligands, all compounds of Example 1 and all S enantiomers, were: Compound A; Compound C, which is the S enantiomer of Compound D; and Compound E, yet another S enantiomer of Example 1. If the competitor compound binds to Site II and displaces Compound D, then FITC-dexamethasone should rebind to GR. […] This assay can therefore measure the relative binding of compounds to the Site II on GR.

[2] = system: AP-1 induced transcriptional activity; assay: Cellular transrepressional assay (AP-1 luciferase reporter, A549 cell, PMA); assay type: cell-based; details: for IC50: read-out: IC50 for transrepression
Protocol: To measure the ability of test molecules to inhibit AP-1 induced transcriptional activity we utilized an A549 cell which was stably transfected with a plasmid containing 7×AP-1 DNA binding sites (pAP-1-Luc plasmid, Stratagene Co. La Jolla, Calif.) followed by the gene for luciferase. Cells were activated with 10 ng/ml of phorbol myristic acid (PMA) plus or minus test molecules for 7 hours. After 7 hours a luciferase reagent was added to measure luciferase enzymatic activity in the cell. After a 10 minute incubation of luciferase reagent with cells, luminescence was measured in a TopCount luminescence counter. Repression of AP-1 activity was calculated as the percentage decrease in the signal induced by PMA alone. […] IC50s were determined by using standard curve fitting methods such as Excel fit (Microsoft Co.). An IC50 is the test molecule concentration which causes a 50% repression of transcription, i.e. a 50% reduction of AP-1 activity.

[3] = target: T3, GAL4 DNA binding domain linked to the ligand binding domain of GR (Homo sapiens, UniProt P04150); assay: Cellular transcriptional assay (HeLa, GAL4-GR LBD, luciferase); assay type: cell-based
T3 construct: expressed in transfected cells; host or cells: HeLa (stably transfected)
T3 sequence (P04150 524-758 limits assumed): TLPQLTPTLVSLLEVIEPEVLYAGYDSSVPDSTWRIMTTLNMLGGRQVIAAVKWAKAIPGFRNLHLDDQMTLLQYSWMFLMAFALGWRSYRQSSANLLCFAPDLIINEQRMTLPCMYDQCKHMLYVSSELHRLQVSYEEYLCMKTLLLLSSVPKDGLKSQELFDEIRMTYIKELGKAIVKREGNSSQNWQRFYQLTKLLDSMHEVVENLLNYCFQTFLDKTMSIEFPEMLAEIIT
Protocol: In order to measure the ability of compounds to induce DNA binding and transcriptional activation in cells the following assay was performed. A HeLa cell line was stably transfected with a gene expressing a fusion protein consisting of the GAL4 DNA binding domain linked to the ligand binding domain of GR. Also transfected into these cells was a DNA binding site for GAL4 (5 repetitions of a 17-mer GAL4 binding site) linked to the beta-globin reporter in front of the luciferase gene. See Eisenmann, G., Cheynel, and Gronemeyer, H. (1995), Quand les cellules scintillent, Biofutur (Le Technoscope), 151: 8. […] After 20 hours the level of luciferase activity was measured using a Steady Glo Luciferase assay system (Promega Co., Madison, Wis.). […] EC50s were calculated by using standard curve fitting methods such as Excel Fit (Microsoft Co., Redmond, Wash.). An EC50 is the test molecule concentration required to cause a 50% stimulation of transcription.

[4] = system: tyrosine amino transferase mRNA; assay: cells; details: read-out: EC50 for induction of tyrosine amino transferase mRNA
Protocol: A second assay which measures the ability of compounds to induce the expression of tyrosine amino transferase mRNA in liver cells was also utilized to determine the ability of compounds to induce DNA binding. […] Test molecules were analyzed in the concentration range from 0.1 nM to 40 μM.

Row | SMILES | inhibition of dexamethasone binding to GR by the compound on its own [1] | displacement of Compound D allowing FITC-dexamethasone to rebind to GR (Site II on GR; Compound D at 200 nM) | inhibition at 0.2 µM (Site II on GR; 200 nM, read-out: inhibition of FITC-dexamethasone binding) [%] | IC50 ([2]; Homo sapiens, A549, absence of Compound A) [nM] | IC50 ([2]; Homo sapiens, A549, presence of 800 nM Compound A) [nM] | inhibition at 0.8 µM ([2]; Homo sapiens, A549, presence of 800 nM Compound A, read-out: percent inhibition) [%] | maximum percent inhibition ([2]; absence of Compound A) [%] | % stimulation ([3]; absence of Compound A) [%] | % stimulation ([3]; presence of Compound A) [%] | EC50 [4] [nM]
1 | Cc1ccc(-c2csc(NC(=O)C3(C)CC4(C#N)c5ccccc5C3c3ccccc34)n2)c2ccccc12 (centres unmarked) [Compound C] | do not inhibit dexamethasone binding; also recorded: do not inhibit dexamethasone on their own | effective at displacing Compound D |  |  |  |  |  |  |  | 
2 | Cc1ccc(-c2csc(NC(=O)C3(C)CC4(C#N)c5ccccc5C3c3ccccc34)n2)c2ccccc12 (centres unmarked) [Compound D] | does inhibit dexamethasone |  | ~50 |  |  |  |  |  |  | 
3 | C[C@@H]1C[C@H]2[C@@H]3CCC4=CC(=O)C=C[C@]4(C)[C@@]3(F)[C@@H](O)C[C@]2(C)[C@@]1(O)C(=O)CO [dexamethasone] |  |  |  | 3.4 | 1.2 | 100 | 75 | 100 | 47 | ~50
